Measurements: patent publication US10500198B2, “Bis-benzylidine piperidone proteasome inhibitor with anticancer activity” (The Johns Hopkins University, priority 2013, dated 2019)

Tested on: HeLa cells
Assay: Active caspase-3 by FACS
Type: cell-based, human
Details: 1 μM, 8 h
Experimental: HeLa cells were treated with RA195 (1 μM) and Bz(1 μM) for the period of 8 h. Cells were stained for PE-conjugated Caspase-3 antibody and measured active caspase-3 by FACS.

## Cl.NCCCC[C@H](NC(=O)OCC1c2ccccc2-c2ccccc21)C(=O)N1C/C(=C\c2ccc(Cl)c(Cl)c2)C(=O)/C(=C/c2ccc(Cl)c(Cl)c2)C1 [RA195]
  active caspase-3: induced active capase expression
